Reference: the supplement of paper PMC11451515

Key:
Settings in all cases: 48 h
SEM cells [1] = assay: cell viability relative to DMSO control; higher = less cytotoxic
Outline: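 In 1536-well plates, 5 μl of leukemia cells were seeded per well: 500 cells/well for NOMO1 or SEM and 1000 cells/well for P12-Ichikawa. Each line had first been adapted for at least four passages in each medium. Library compounds in DMSO were pin-dosed at 11 threefold concentrations between 47 μM and 0.79 nM, and CellTiter-Glo One luminescence was read after 48 h at 37°C. Viability is a per-plate percentage relative to DMSO wells, with cell-free wells as background.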

P12-Ichikawa = assay: AUC of viability dose-response curve (% viability x log10 dose units); higher = less sensitive
Outline: (§1)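 Medium-adapted leukemia cells in 1536-well plates, at 500 or 1000 cells/well, were incubated for 48 h at 37°C with library compounds in DMSO at 11 threefold doses from 47 μM to 0.79 nM. CellTiter-Glo One luminescence normalised per plate to DMSO and cell-free wells was fitted with a four-parameter log-logistic model over log10 doses. Area under the curve was integrated from this fit by trapezoidal rule, with curves beyond full viability scaled and failed quality-control curves removed.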

SEM cells [2] = assay: as above
Outline: as §1

NOMO1 = assay: as above
Outline: as §1

COc1ccc([S+](=O)([O-])Nc2cc(-c3c(O)ccc4ccccc34)c(O)c3ccccc23)cc1
cell viability [%], SEM cells [1]
Settings	HPLM + 10% dialyzed FBS	RPMI 5 mM glucose + 10% FBS
0.000781 µM	96.8	114
0.00234 µM	111	115
0.00702 µM	134	124
0.0211 µM	115	131
0.0632 µM	101	119
0.19 µM	116	127
0.569 µM	101	115
1.71 µM	97	88.7
5.12 µM	86.4	78.6
15.4 µM	43.4	18.4
46.1 µM	6.74	5.19

AUC of viability dose-response curve
Settings	NOMO1	P12-Ichikawa	SEM cells [2]
HPLM + 10% dialyzed FBS	435	429	408
RPMI 5 mM glucose + 10% FBS	453	439	383
RPMI 5 mM glucose + 10% dialyzed FBS	462	432	389

COC1=CC=C(C=C1)C/2=C(OC3O[C@@H](C)[C@H](O)[C@@H](O)[C@H]3O)/C(=O)C4=C(O2)C(=C(OC5O[C@H](CO)[C@@H](O)[C@H](O)[C@H]5O)C=C4O)CC=C(C)C (stereo partly drawn)
SEM cells [1], RPMI 5 mM glucose + 10% dialyzed FBS
Settings	cell viability [%]
0.000781 µM	127
0.00234 µM	123
0.00702 µM	117
0.0211 µM	118
0.0632 µM	126
0.19 µM	129
0.569 µM	124
1.71 µM	114
5.12 µM	115
15.4 µM	80.7
46.1 µM	14.7

AUC of viability dose-response curve
Settings	NOMO1	P12-Ichikawa	SEM cells [2]
HPLM + 10% dialyzed FBS	445	456	439
RPMI 5 mM glucose + 10% FBS	457	459	420
RPMI 5 mM glucose + 10% dialyzed FBS	462	469	435

O=C(Nc1nc2cccc(-c3ccc(CN4CC[S+](=O)([O-])CC4)cc3)n2n1)C1CC1
cell viability [%], SEM cells [1]
Settings	RPMI 5 mM glucose + 10% FBS	RPMI 5 mM glucose + 10% dialyzed FBS
0.000781 µM	111	120
0.00234 µM	133	125
0.00702 µM	120	109
0.0211 µM	124	126
0.0632 µM	136	130
0.19 µM	146	152
0.569 µM	130	133
1.71 µM	121	124
5.12 µM	103	90.1
15.4 µM	107	94.6
46.1 µM	21.3	31.1

AUC of viability dose-response curve
Settings	NOMO1	P12-Ichikawa	SEM cells [2]
HPLM + 10% dialyzed FBS	440	455	441
RPMI 5 mM glucose + 10% FBS	449	454	446
RPMI 5 mM glucose + 10% dialyzed FBS	444	455	432

Clc1ccc(C(Cn2ccnc2)OCc2c(Cl)cccc2Cl)c(Cl)c1 (stereo not drawn)
SEM cells [1], HPLM + 10% dialyzed FBS
Settings	cell viability [%]
0.000781 µM	109
0.00234 µM	105
0.00702 µM	121
0.0211 µM	107
0.0632 µM	117
0.19 µM	125
0.569 µM	130
1.71 µM	117
5.12 µM	121
15.4 µM	114
46.1 µM	117

AUC of viability dose-response curve
Settings	NOMO1	P12-Ichikawa	SEM cells [2]
HPLM + 10% dialyzed FBS	466	474	462
RPMI 5 mM glucose + 10% FBS	468	466	471
RPMI 5 mM glucose + 10% dialyzed FBS	468	468	467

CCOc1cc(N2CCC(O)CC2)ccc1Nc1ncc2c(n1)N(C)c1ccccc1C(=O)N2C
SEM cells [1], HPLM + 10% dialyzed FBS
Settings	cell viability [%]
0.000781 µM	106
0.00234 µM	117
0.00702 µM	133
0.0211 µM	126
0.0632 µM	130
0.19 µM	133
0.569 µM	139
1.71 µM	146
5.12 µM	119
15.4 µM	94.9
46.1 µM	7.22

AUC of viability dose-response curve
Settings	NOMO1	P12-Ichikawa	SEM cells [2]
HPLM + 10% dialyzed FBS	321	350	441
RPMI 5 mM glucose + 10% FBS	301	352	421
RPMI 5 mM glucose + 10% dialyzed FBS	318	370	428

C/C(O)=C(\C#N)C(=O)Nc1ccc(C(F)(F)F)cc1
AUC of viability dose-response curve
Settings	NOMO1	P12-Ichikawa	SEM cells [2]
HPLM + 10% dialyzed FBS	457	454	437
RPMI 5 mM glucose + 10% FBS	470	455	430
RPMI 5 mM glucose + 10% dialyzed FBS	436	432	431

CN(C)CC(=O)N1CCC(CC1)C2=CC=C(NC(=O)C3=NC(=C[NH]3)C#N)C(=C2)\C4=C\CCCC4
AUC of viability dose-response curve
Settings	NOMO1	P12-Ichikawa	SEM cells [2]
HPLM + 10% dialyzed FBS	458	467	359
RPMI 5 mM glucose + 10% FBS	454	463	358
RPMI 5 mM glucose + 10% dialyzed FBS	456	443	348

O=C(O)/C=C/c1ccc(Cn2ccnc2)cc1
AUC of viability dose-response curve
Settings	NOMO1	P12-Ichikawa	SEM cells [2]
HPLM + 10% dialyzed FBS	469	438	466
RPMI 5 mM glucose + 10% FBS	438	436	471
RPMI 5 mM glucose + 10% dialyzed FBS	460	464	473

CC1(C)[C@H](C(=O)O)N2C(=O)C[C@H]2[S+]1(=O)[O-]
AUC of viability dose-response curve
Settings	NOMO1	P12-Ichikawa	SEM cells [2]
HPLM + 10% dialyzed FBS	396	468	472
RPMI 5 mM glucose + 10% FBS	411	470	468
RPMI 5 mM glucose + 10% dialyzed FBS	420	469	472
